According to PMC9606171, “Synthetic PPAR Agonist DTMB Alleviates Alzheimer’s Disease Pathology by Inhibition of Chronic Microglial Inflammation in 5xFAD Mice” (Neurotherapeutics, 2022):

Columns and labels:
PPAR-β/δ = system: PPAR-β/δ; design: method as in PMID 27802237; conditions: dual agonist of PPAR-β/δ and PPARγ; cited from earlier work
[1] = system: RAW 264.7 macrophage cells; experiment: Griess assay, LPS-induced NO production; format: cell-based; conditions: LPS (1 µg/mL), 24 h
Description: Griess assay (Promega) was performed under manufacturer’s instruction to measure the concentration of nitrite after inducing the inflammatory response in RAW 264.7 macrophage cells by LPS treatment. The well-known PPAR selective agonists, such as WY14643 (PPARα), GW501516 (PPAR-β/δ), and rosiglitazone (PPARγ), were used as positive controls.

SMILES	selectivity to PPAR-β/δ (PPAR-β/δ)	inhibition of NO production compared between DTMB and known PPAR agonists [1]
CCc1oc(-c2ccc(OC)cc2)nc1CCOc1ccc2c(c1)CC[C@H]2CC(=O)[O-].[Na+] [T3D-959]	15 fold	–
Cc1cc(SCc2sc(-c3ccc(C(F)(F)F)cc3)nc2C)ccc1OCC(=O)O [GW501516, reference compound]	–	better inhibitor than DTMB
